Experimental findings from patent US6362216B1, “Compounds which inhibit tryptase activity” (Array Biopharma Inc., priority 1998, dated 2002) are described below.

Where only a bound is given, the exact number is not on record here.

In general, Ki refers to the equilibrium dissociation constant of an inhibitor or competing ligand from its target. The low end stands for higher affinity, the high end for lower affinity.

Common to all, as to format: biochemical
One assay concerns the target T1, Human lung tryptase.
T1 construct: Human lung tryptase purchased from Cortex Biochem (San Leandro, Calif.) was purified further on a Superdex 200 gel-filtration column
Description: Human lung tryptase inhibition, chromogenic GPR-pNA substrate. As to the method: (§1) Protease inhibition was assayed according to published procedures with minor modifications using various proteases and specific chromogenic peptide p-nitroanilide substrates. Assays were performed in Costar ultra-low cluster 96-well microtiter plate (Costar Corning Corp., Cambridge Mass.). Each protease was incubated with various concentrations of the test compound for 15 min. at 37° C. or as otherwise indicated, in specific assay buffer, and the residual activity was then measured by addition of the substrate. p-Nitroaniline produced by the proteolysis was determined by measuring the change in absorbance at 405 nm on a SpectraMAX 340 plate reader (Molecular devices, Sunnyvale, Calif.).
(§2) 1. The inhibition constant, Ki is calculated from individual data points using the equation for a tight-binding inhibitor (See Beith, “Proteinase Inhibitors-Proceedings of 2nd Int. Res. Conference”, Fritz, et al. eds., New York, p.4463-4469 (1974)):
vi/vo=[((Ki′+[I]+[E]o)^2−4[I]o[E]o)^½(Ki′+[I]o−[E]o)]/2[E]o
where Ki′ is apparent inhibition constant; vi and vo are the inhibited and uninhibited rates, respectively; [I]o and [E]o are the total concentrations of inhibitor and enzyme, respectively.
[note: [E]o is determined by active site titration of enzyme]
(§3) The Ki values are obtained by correcting Ki ′ values for the effect of substrate concentration according to: [formula]
2. Other inhibition data (Ki>>[E]o), the Ki is calculated from using the equations for a competitive inhibitor: [formula]
IC50 is determined by fitting the individual inhibition data point to Sigmoid or four-parameter curve-fit equations.
Human lung tryptase purchased from Cortex Biochem (San Leandro, Calif.) was purified further on a Superdex 200 gel-filtration column. The active-site concentration of the enzyme was determined by spectrophotometric titration with 4-nitrophenyl 4′-guanidinobenzoate according to Schwartz, et al., J. Immunol., 114, 2304-2311 (1990). Tryptase activity was measured according to the procedures of Schwartz, et al., J. Biol. Chem., 261, 7372-7379 (1986) (See also, Schwartz, L. B., Methods In Enzymology, 244, 88 (1994)) with minor modifications, using Tosyl-Gly-Pro-Arg-p-nitroanilide (“GPR-pNA”, Sigma Chemical Co., St. Louis, Mo., T-1637) as a chromogenic substrate. The reaction was performed in 50 mM Tris-HCl, pH 8.0, containing 150 mM NaCl and 0.02% Triton X-100 at 37° C. in Costar ultra-low cluster 96-well microtiter plates (Costar Corning Corp., Cambridge, Mass.). The amount of pNA produced by tryptase was determined by measuring the change in absorbance at 405 nm on a SpectraMAX 340 plate reader (Molecular devices, Sunnyvale, Calif.). The Km for the substrate was determined by Lineweaver-Burk analysis from initial velocities of substrate hydrolysis. The inhibition assay was carried out in a total volume of 200 μL. Tryptase (30 μL-final concentration 1 nM) was incubated with various concentrations of sample compound (50 μL) to be tested in the above assay buffer for 5 min. The reaction was started by the addition of substrate GPR-pNA (40 μL-final concentration 320 μM), and the residual activity was measured after 15 min. of incubation. The inhibition constant, Ki, was determined by fitting the inhibition data to a two-site competitive binding equation using data analysis program GraphPad PRISM (GraphPad Software, Inc., San Diego, Calif.).
The inhibition constant (Ki) of the test compounds against each proteolytic enzyme was determined according to Zitnik et al., Biochem. Biophys. Res. Commun. 232, 687-697 (1997)).

The next assay has as its target T2, Human plasma factor Xa (Homo sapiens, UniProt P00742).
T2 construct: from tissue; host or cells: human plasma
Description: Human plasma factor Xa inhibition, N-Benzoyl-Ile-Glu-Gly-Arg-pNA substrate. To be noted: 50 mM Tris-HCl, pH 7.8, 200 mM NaCl, 0.05% BSA. On the procedure: as §1
(§4) 1. The inhibition constant, Ki is calculated from individual data points using the equation for a tight-binding inhibitor (See Beith, “Proteinase Inhibitors-Proceedings of 2nd Int. Res. Conference”, Fritz, et al. eds., New York, p.4463-4469 (1974)): […]
(§5) 2. Other inhibition data (Ki>>[E]o), the Ki is calculated from using the equations for a competitive inhibitor: [formula] […]
Human plasma factor Xa activity was determined by using N-Benzoyl-Ile-Glu-Gly-Arg-pNA in 50 mM Tris-HCl, pH 7.8, 200 mM NaCl, 0.05% BSA (See Lottenberg, et al. Meth. Enzymol. 80, 341-361 (1981)).
(§6) The inhibition constant (Ki) of the test compounds against each proteolytic enzyme was determined according to Zitnik et al., Biochem. Biophys. […]

Assay [1] has as its target T3, Human Neutrophil elastase (Homo sapiens, UniProt P08246).
T3 construct: from tissue; host or cells: human neutrophils
T3 sequence (P08246 30-267): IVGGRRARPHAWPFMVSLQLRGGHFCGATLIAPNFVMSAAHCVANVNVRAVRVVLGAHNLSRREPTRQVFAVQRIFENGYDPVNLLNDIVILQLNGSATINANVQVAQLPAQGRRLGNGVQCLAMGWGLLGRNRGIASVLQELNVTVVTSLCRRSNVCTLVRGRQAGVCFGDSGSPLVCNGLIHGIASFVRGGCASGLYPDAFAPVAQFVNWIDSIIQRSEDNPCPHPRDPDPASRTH
Description: Human neutrophil elastase inhibition, pyroGlu-Pro-Val-pNA substrate. To be noted: 100 mM Tris-HCl, pH 8.3, 0.96 M NaCl, 1% BSA. As to the method: as §1, §4, §5
Human Neutrophil elastase activity was determined by using pyroGlu-Pro-Val-pNA in 100 mM Tris-HCl, pH 8.3, 0.96 M NaCl, 1% BSA (See Kramps, et al. Scand. J. Clin. Lab. Invest. 43, 427-432 (1983)).
as §6

Assay [2] concerns the target T4, Human Neutrophil Cathepsin G (Homo sapiens, UniProt P08311).
T4 construct: from tissue; host or cells: human neutrophils
T4 sequence (P08311 21-244): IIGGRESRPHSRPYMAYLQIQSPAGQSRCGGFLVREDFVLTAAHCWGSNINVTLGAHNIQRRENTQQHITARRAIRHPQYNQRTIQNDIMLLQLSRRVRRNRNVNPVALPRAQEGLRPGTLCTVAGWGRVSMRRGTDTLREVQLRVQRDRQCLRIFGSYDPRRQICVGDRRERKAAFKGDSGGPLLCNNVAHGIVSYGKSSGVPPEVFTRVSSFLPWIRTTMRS
Description: Human neutrophil cathepsin G inhibition, N-Suc-Ala-Ala-Pro-Phe-pNA substrate. The settings on record: 625 mM Tris-HCl, pH 7.5, 2.5 mM MgCl2, 0.125% Brij 35. As to the method: as §1, §2, §3, §5
Human Neutrophil Cathepsin G activity was determined by using N-Suc-Ala-Ala-Pro-Phe-pNA in 625 mM Tris-HCl, pH 7.5, 2.5 mM MgCl2, 0.125% Brij 35 (See Groutas et al., Arch. Biochem. Biophys. 294, 144-146 (1992)). […]

The target in assay [3] is Human r-tissue kallikrein (Homo sapiens, UniProt P06870). Description: Human r-tissue kallikrein inhibition, DL-Val-Leu-Arg-pNA substrate. To be noted: 50 mM Tris-HCl, pH 7.8, 200 mM NaCl, 0.05% BSA. On the procedure:
as §1, §4, §5
Human plasma and r-tissue kallikrein activity were determined in 50 mM Tris-HCl1, pH 7.8, 200 mM NaCl, 0.05% BSA by using H-D-Prolyl-Phe-Arg-pNA and DL-Val-Leu-Arg-pNA, respectively (See Lottenberg, et al., Meth. Enzymol. 80, 341-361 (1981)). […]

T2 sequence (P00742 235-488 limits assumed): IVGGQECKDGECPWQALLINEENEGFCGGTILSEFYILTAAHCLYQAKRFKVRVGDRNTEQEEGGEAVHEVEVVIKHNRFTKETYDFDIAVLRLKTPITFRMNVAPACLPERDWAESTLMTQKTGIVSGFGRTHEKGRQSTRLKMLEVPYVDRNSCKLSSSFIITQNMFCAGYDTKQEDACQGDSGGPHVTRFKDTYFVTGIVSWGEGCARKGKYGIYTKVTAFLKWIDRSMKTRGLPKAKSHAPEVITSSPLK
T2 sequence (P00742 41-179 partner limits assumed): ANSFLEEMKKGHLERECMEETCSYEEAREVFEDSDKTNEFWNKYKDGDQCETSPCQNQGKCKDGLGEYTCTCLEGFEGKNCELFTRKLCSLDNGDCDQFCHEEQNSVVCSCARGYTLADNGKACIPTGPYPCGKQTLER
Human r-tissue kallikrein, sequence (P06870 25-262): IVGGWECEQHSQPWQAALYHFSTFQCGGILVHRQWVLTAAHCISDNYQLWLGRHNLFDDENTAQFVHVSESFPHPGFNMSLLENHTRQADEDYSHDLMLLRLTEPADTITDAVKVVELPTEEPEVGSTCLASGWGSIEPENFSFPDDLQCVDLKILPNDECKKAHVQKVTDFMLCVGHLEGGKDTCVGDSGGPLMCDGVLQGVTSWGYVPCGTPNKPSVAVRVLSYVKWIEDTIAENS

Consider `Cc1cc2cc(CNC(=O)Cc3cc4cc(C(=N)N)ccc4s3)ccc2[nH]1` [drawing 17 Benzthiophene 5-carboxamidine n=1], for which the Ki is 0.041 µM at Human lung tryptase (the 5th table, unit inferred); 0.041 µM on Human lung tryptase (tryptase 1 nM, GPR-pNA 320 μM, 50 mM Tris-HCl pH 8.0, 37° C.); 17.7 µM on Human plasma factor Xa; above 100 µM in assay [1]; above 100 µM in assay [2]; above 100 µM in assay [3].
